Values of other authors in patent US6358940B1, “Modified 2-Alkoxyestradiol derivatives with prolonged pharmacological activity” (priority 1999, dated 2002).

Legend:
tubulin polymerization = settings: antitubulin activity and cytotoxicity
[1] = test system: human non-small cell lung cancer line
neovascularization = settings: in vivo

SMILES	potency relative to 2-methoxyestradiol (tubulin polymerization)	inhibitory effect on angiogenesis (angiogenesis)	apoptotic cell death ([1]; after drug treatment)	wild-type p53 levels ([1]; human non-small cell lung cancer line, with accumulation of p21WAF1/CIP1)	cytotoxicity (cancer cell cultures)	inhibition of neovascularization (neovascularization; mice)	signs of toxicity (neovascularization; mouse)
CC=Cc1cc2c(cc1O)CCC1C2CCC2(C)C(O)CCC12 (stereo not drawn) [2-((E)-l-propenyl)-estradiol]	substantially more potent than 2-methoxyestradiol	–	–	–	–	–	–
COc1cc2c(cc1O)CC[C@@H]1[C@@H]2CC[C@]2(C)[C@@H](O)CC[C@@H]12 [2-methoxyestradiol]	–	strong inhibitory effect on angiogenesis	Significant apoptotic cell death	increases wild-type p53 levels	cytotoxic	potent inhibitor of neovascularization	No signs of toxicity
CCOc1cc2c(cc1O)CC[C@@H]1[C@@H]2CC[C@]2(C)[C@@H](O)CC[C@@H]12 [2-Ethoxyestradiol]	substantially more potent than 2-methoxyestradiol	–	–	–	–	–	–
